The record followed here is the kinase profiling compilation of Christmann-Franck et al. (2016).

Among the targets are PRKACA (human) (UniProt P17612); DYRK1B (human) (UniProt Q9Y463); EPHB3 (human) (UniProt P54753); FLT4 (human) (UniProt P35916); MAP3K12 (human) (UniProt Q12852); RPS6KA5 KD2 (human) (UniProt O75582); EPHB4 (human) (UniProt P54760); CSF1R (human) (UniProt P07333); ABL2 (human) (UniProt P42684); EGFR (human) (UniProt P00533); PIK3CA (human) (UniProt P42336); PIK3CD (human) (UniProt O00329); HIPK2 (human) (UniProt Q9H2X6); ANKK1 (human) (UniProt Q8NFD2); AURKB (human) (UniProt Q96GD4); SRC (human) (UniProt P12931); AKT2 (human) (UniProt P31751); FRK (human) (UniProt P42685); MAPK15 (human) (UniProt Q8TD08); NEK1 (human) (UniProt Q96PY6); PAK2 (human) (UniProt Q13177); PIK3CG (human) (UniProt P48736); NTRK3 (human) (UniProt Q16288).

What all share (settings): compound 10.0 µM
Experiment [1] has as its system PIK3CA (human), P42336 [E545A].
Experiment [2] deals with FLT3 (human), P36888 [D835Y].
The subject of experiment [3] is PIK3CA (human), P42336 [C420R].
In experiment [4] the test system is KIT (human), P10721 [D816V].
The test system of experiment [5] is PIK3CA (human), P42336 [H1047L].
Experiment [6] has as its system EGFR (human), P00533 [752-759 del].
Experiment [7] relates to PIK3CA (human), P42336 [M1043I].
Experiment [8] has as its system EGFR (human), P00533 [P753S; 747-752 del].
For experiment [9], the system named is PIK3CA (human), P42336 [E545K].
For experiment [10], the system named is ABL1 (human), P00519 [Y253F].
Experiment [11] deals with ABL1 (human), P00519 [E255K].
Experiment [12] concerns KIT (human), P10721 [A829P].
Experiment [13] relates to EGFR (human), P00533 [T790M].
Experiment [14] concerns ABL1 (human), P00519 [M351T].
For experiment [15], the system named is EGFR (human), P00533 [746-750 del].
The subject of experiment [16] is EGFR (human), P00533 [T790M/L858R].
Experiment [17] deals with PIK3CA (human), P42336 [E542K].
Experiment [18] concerns PIK3CA (human), P42336 [H1047Y].

MAP3K12 (human), sequence (Q12852 whole entry, looked up): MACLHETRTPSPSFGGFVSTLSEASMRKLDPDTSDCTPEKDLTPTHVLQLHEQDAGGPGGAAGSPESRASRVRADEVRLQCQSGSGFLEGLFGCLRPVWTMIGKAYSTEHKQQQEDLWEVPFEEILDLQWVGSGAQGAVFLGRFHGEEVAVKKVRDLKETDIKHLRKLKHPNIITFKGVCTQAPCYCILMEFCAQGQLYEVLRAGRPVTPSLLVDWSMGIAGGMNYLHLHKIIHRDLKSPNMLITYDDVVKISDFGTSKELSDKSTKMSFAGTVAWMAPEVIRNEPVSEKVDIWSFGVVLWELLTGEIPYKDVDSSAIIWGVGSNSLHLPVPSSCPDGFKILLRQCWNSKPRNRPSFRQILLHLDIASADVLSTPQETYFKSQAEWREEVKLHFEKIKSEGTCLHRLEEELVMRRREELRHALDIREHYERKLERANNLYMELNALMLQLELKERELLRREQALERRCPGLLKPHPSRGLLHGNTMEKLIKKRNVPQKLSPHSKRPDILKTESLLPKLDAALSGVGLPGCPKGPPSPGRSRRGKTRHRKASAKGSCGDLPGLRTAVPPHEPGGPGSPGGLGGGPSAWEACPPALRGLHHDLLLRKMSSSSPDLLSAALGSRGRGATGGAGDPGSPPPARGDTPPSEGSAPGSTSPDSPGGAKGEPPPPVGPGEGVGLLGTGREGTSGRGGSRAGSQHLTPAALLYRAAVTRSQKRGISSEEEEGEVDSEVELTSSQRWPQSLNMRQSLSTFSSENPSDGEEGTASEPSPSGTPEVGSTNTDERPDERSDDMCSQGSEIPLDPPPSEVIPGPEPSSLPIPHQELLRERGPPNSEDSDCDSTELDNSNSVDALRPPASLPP
DYRK1B (human), sequence (Q9Y463 whole entry, looked up): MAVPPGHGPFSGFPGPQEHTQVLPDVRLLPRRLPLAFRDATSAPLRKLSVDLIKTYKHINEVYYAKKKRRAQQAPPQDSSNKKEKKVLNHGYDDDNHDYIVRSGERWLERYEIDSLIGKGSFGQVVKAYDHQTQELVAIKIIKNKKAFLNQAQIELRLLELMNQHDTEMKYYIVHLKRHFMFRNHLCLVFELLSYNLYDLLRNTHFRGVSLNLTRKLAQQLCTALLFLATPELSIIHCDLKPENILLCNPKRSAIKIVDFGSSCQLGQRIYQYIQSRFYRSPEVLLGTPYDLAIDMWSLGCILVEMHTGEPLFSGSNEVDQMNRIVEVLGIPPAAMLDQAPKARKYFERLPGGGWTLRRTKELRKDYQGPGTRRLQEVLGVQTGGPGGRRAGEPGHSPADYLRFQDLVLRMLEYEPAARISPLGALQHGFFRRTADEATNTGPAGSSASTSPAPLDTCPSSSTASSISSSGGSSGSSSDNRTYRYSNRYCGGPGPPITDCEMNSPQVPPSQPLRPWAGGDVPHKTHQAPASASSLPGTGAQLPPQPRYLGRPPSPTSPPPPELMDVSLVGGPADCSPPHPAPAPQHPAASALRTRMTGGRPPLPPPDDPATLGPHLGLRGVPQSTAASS
FLT4 (human), sequence (P35916 whole entry, looked up): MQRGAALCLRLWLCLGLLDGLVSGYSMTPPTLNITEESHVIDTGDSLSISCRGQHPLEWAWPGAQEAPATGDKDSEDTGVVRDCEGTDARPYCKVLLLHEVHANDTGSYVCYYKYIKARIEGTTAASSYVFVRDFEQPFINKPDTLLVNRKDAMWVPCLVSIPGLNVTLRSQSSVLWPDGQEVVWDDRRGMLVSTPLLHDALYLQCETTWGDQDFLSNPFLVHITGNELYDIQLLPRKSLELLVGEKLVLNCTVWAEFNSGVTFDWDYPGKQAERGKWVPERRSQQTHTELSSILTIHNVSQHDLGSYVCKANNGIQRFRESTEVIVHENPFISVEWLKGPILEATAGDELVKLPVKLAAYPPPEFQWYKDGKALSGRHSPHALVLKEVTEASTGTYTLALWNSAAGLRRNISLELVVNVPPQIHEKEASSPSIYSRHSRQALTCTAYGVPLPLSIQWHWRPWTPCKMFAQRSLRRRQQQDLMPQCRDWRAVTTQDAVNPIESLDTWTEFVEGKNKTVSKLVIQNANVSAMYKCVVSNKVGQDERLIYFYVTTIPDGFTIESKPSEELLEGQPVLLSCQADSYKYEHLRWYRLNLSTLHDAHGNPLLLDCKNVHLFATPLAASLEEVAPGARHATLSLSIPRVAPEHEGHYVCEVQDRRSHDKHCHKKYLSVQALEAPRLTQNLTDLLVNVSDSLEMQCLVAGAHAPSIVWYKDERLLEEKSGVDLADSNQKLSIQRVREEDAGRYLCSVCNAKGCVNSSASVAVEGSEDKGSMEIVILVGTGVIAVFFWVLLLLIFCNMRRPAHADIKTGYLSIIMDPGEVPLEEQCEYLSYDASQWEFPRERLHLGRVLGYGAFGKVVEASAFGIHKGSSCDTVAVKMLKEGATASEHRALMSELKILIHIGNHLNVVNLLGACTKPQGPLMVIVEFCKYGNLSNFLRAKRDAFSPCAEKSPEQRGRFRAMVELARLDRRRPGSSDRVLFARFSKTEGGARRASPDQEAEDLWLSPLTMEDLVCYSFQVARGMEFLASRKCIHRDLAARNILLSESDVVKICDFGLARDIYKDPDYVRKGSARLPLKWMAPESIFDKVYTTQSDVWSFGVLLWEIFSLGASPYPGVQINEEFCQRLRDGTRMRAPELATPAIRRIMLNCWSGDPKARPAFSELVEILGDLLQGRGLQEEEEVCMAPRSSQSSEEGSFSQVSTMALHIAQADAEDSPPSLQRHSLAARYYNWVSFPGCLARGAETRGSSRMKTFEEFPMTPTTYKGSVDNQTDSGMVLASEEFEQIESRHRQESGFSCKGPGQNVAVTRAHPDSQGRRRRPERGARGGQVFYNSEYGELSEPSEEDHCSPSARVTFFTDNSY
EPHB3 (human), sequence (P54753 whole entry, looked up): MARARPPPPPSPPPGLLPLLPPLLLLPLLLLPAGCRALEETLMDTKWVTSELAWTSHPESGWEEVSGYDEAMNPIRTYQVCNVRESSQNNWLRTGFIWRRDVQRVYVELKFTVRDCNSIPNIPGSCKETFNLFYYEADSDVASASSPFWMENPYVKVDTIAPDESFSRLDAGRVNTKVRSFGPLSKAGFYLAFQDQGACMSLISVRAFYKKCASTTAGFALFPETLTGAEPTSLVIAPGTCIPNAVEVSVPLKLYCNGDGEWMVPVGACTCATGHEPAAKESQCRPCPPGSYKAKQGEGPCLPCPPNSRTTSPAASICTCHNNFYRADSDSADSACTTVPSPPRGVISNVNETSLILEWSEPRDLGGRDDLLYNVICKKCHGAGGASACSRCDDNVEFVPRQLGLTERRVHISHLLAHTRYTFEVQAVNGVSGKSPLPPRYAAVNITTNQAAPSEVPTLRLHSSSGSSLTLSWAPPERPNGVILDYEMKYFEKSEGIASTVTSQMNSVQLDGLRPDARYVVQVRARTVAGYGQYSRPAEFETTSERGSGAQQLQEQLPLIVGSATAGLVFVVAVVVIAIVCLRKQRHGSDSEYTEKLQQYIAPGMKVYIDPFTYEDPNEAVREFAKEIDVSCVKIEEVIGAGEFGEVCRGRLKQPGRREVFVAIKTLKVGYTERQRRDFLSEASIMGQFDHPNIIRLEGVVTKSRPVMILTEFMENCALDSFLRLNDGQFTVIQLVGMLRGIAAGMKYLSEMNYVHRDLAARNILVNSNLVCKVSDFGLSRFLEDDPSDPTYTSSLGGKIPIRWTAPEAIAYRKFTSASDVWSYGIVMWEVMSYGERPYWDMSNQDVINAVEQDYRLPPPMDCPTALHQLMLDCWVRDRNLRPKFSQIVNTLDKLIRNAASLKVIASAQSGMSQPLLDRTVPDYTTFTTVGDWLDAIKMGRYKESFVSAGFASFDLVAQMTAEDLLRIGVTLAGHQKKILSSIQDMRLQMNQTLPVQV
SRC (human), sequence (P12931 whole entry, looked up): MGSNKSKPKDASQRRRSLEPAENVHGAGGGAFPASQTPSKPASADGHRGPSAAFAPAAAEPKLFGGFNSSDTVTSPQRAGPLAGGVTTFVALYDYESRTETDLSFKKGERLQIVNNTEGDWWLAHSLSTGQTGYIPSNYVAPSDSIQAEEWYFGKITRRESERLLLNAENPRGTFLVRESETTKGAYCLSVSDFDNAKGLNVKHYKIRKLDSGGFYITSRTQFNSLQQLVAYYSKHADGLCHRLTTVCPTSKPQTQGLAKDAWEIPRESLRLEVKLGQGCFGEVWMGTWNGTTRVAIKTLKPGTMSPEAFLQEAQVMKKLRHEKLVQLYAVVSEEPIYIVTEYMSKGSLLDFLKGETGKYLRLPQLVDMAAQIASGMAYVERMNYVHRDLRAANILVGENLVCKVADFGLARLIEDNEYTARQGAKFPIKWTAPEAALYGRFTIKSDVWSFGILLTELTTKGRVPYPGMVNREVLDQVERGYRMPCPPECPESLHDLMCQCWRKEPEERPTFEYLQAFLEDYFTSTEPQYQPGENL
MAPK15 (human), sequence (Q8TD08 whole entry, looked up): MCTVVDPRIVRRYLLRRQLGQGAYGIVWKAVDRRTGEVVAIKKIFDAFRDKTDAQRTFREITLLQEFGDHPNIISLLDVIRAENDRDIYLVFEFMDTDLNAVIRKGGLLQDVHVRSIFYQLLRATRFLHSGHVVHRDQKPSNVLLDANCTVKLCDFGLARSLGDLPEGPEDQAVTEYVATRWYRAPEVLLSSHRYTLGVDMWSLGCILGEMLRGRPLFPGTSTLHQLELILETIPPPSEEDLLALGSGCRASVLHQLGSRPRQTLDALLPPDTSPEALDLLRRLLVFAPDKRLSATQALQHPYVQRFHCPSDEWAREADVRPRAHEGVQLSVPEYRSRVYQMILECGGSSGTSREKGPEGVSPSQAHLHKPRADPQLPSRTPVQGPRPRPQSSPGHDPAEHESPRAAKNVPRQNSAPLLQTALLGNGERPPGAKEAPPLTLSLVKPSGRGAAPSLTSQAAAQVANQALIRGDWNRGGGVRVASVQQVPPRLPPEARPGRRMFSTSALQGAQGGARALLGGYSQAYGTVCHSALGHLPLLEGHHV

With `CNC(=O)c1cc(Oc2ccc(NC(=O)Nc3ccc(Cl)c(C(F)(F)F)c3)cc2)ccn1`, the per cent of control worked out at 100% at PRKACA (human); 67% on DYRK1B (human); 53% on EPHB3 (human); 0% on FLT4 (human); 100% at MAP3K12 (human).

Consider `CNC(=O)c1cc(Oc2ccc(NC(=O)Nc3ccc(Cl)c(C(F)(F)F)c3)cc2)cc[n+]1[O-]`, for which the per cent of control came to 100% in experiment [1]; 100% at PRKACA (human); 2.8% in experiment [2]; 40% in [3]; 2.6% in [4]; 81% at RPS6KA5 KD2 (human). Also, the per cent of control on EPHB4 (human) was found to be 16%; on DYRK1B (human), 69%; at EPHB3 (human) it was 100%; in experiment [5], 98%; on CSF1R (human), 0%; at ABL2 (human), 25%. Further, the per cent of control in experiment [6] came out at 96%; at EGFR (human), 75%; at PIK3CA (human), 95%; in experiment [7] it was 83%; at PIK3CD (human) it was 100%; at HIPK2 (human), 20%. The per cent of control on ANKK1 (human) came out at 58%; on FLT4 (human), 0%; in [8] it was 77%; in experiment [9], 100%; in [10], 30%; on AURKB (human) it was 0%. The per cent of control at SRC (human) turned out to be 53%; at AKT2 (human) it was 88%; in experiment [11] it was 38%; at FRK (human), 1.8%; in experiment [12], 26%; in experiment [13], 100%. Moreover, the per cent of control at MAPK15 (human) was 0.6%; in experiment [14], 21%; in [15] it was 84%; in experiment [16], 82%; at NEK1 (human) it was 84%; on PAK2 (human) it was 93%. Moreover, the per cent of control in experiment [17] stood at 100%; at PIK3CG (human) it was 82%; on MAP3K12 (human) it was 100%; on NTRK3 (human) it was 0.35%; in experiment [18], 100%.
